Data set [1] concerns MDCKII-MDR1 cells. The note with it: cited from earlier work.
The subject of data set [2] is Caco-2 cells. As to the kind of experiment: Caco-2 permeability. To be noted: for Recovery% (BL-AP) / efflux ratio: Table S9. In general terms: Caco-2 monolayers are a common model of the intestinal barrier.
A short description of data set [3]: Aqueous solubility. The format is physicochemical. To be noted: pH 7.4.
Data set [4] addresses cSRC wt (Homo sapiens, UniProt P12931). As to the kind of experiment: KinaseProfiler enzymatic radiometric kinase assay.
The nature of data set [5]: Plasma protein binding by equilibrium dialysis. The class given is in vitro ADME. To be noted: mouse plasma; for recovery / remaining at 6 h / fraction unbound: both sexes, CD-1; for fraction unbound: read-out: %Bound (converted). A general note: In equilibrium dialysis only unbound substance equilibrates across the membrane.
For data set [6], the target named is mutant BCR-ABL1 kinases. As to the kind of experiment: Biochemical kinase inhibition, summary statements. More on the design: species or system human. The note with it: read-out: IC50 against mutant BCR-ABL1 kinases.
Data set [7] deals with T1, hERG potassium ion channel (Homo sapiens, UniProt Q12809).
T1 construct: host or cells: HEK 293
T1 sequence (Q12809 whole entry): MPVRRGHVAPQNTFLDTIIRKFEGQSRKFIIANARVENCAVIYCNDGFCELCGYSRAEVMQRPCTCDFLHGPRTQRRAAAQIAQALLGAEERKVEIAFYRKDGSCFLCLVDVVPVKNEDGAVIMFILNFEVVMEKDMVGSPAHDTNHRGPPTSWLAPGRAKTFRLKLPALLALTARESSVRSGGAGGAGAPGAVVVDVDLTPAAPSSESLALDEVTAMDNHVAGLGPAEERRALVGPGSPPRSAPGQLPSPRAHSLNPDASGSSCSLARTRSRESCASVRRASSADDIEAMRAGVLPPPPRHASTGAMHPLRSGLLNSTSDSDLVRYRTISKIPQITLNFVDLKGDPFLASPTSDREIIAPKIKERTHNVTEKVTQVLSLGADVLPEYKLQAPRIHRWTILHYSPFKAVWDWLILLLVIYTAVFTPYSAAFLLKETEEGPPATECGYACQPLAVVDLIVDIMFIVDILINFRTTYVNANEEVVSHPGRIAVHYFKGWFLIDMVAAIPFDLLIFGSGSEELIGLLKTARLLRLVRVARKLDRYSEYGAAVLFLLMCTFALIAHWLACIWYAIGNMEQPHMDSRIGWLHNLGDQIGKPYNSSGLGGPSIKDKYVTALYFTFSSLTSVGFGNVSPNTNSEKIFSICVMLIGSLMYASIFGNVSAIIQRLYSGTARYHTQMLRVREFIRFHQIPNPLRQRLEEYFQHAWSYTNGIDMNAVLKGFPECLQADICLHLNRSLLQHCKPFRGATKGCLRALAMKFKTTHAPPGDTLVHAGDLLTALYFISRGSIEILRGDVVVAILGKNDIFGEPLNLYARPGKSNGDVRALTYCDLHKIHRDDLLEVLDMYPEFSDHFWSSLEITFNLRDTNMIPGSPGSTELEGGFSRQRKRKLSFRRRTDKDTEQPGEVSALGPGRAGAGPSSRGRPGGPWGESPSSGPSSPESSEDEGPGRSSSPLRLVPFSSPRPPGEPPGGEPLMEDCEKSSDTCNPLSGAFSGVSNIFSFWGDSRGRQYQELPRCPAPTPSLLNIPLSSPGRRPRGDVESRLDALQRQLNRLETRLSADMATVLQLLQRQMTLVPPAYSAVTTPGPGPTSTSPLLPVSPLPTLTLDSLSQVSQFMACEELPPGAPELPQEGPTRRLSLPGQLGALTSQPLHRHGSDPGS
Nature of the data set: hERG safety evaluation by manual patch-clamp (HEK 293). The format is cell-based. The note with it: mean ± SEM in Table S11. (The hERG channel carries a current that helps repolarise heart muscle cells.)
Source text: hERG Safety evaluation by manual patch-clamp system
aIC50 values are presented as the mean ± SEM, n = 3 independent replicates unless otherwise
𝜇M) and run in triplicate. cValues a s previously reported in Ref. 1 .dMean of n = 2 independent
Points indicate the mean, and error bars indicate
the SD; n ≥ 2 independent replicates. IC 50 values ( 𝜇M) are reported beside the dose -response
curves and represent the mean ± SEM.

Data set [8] concerns MDCKII-MDR1 cells. Nature of the data set: MDCKII-MDR1 permeability. To be noted: for Recovery% (BL-AP) / efflux ratio: Table S7.
A short description of data set [9]: Metabolic stability in hepatocytes. The format is in vitro ADME, human. To be noted: for hepatocyte CLint: both sexes, read-out: HEPClint (H); for hepatocyte CLint / t1/2 (H): human hepatocytes. The source says: (§1) Metabolic stability in hepatocytes
(§2) Table S4. Hepatocyte details used in the hepatocyte stability assay.
(§3) Human Hepatocytes, Mixed-Gender BiolVT (Cat No. X008001)
(§4) Mouse Hepatocytes, Male-Gender BiolVT (Cat No. M005052)

Data set [10] is described as follows: in vitro. The note with it: dog, MDCK-MDR1.
Data set [11] has as its system MDR1. Nature of the data set: in vitro. The note with it: dog, MDCK-MDR1.
In data set [12] the test system is MDR1 (P-gp). As to the kind of experiment: in vitro. The note with it: dog, MDCK-MDR1.
A short description of data set [13]: in vitro. The note with it: human, Caco-2.
Data set [14] is described as follows: Lipophilicity logD7.4. The format is physicochemical. To be noted: pH 7.4.
Data set [15] in a line: Plasma protein binding by equilibrium dialysis. The class given is in vitro ADME. To be noted: human plasma; for fraction unbound / recovery / remaining at 6 h: both sexes.
Data set [16] has as its target BCR-ABL1 wt (Homo sapiens, UniProt P00519). As to the kind of experiment: KinaseProfiler enzymatic radiometric kinase assay. To be noted: read-out: Kinase IC50 BCR-ABL1 wt; [ATP] = 10 µM, n = 2.
For data set [17], the system named is P-glycoprotein (P-gp). The note with it: Figure 1A; cited from earlier work.
Data set [18] in a line: Metabolic stability in hepatocytes. The class given is in vitro ADME, mouse.
Source text: as §1, §2, §3, §4

Broadly, the efflux ratio is a quotient of directional permeabilities that is used to spot active efflux. The pIC50 is the negative decadic logarithm of the IC50, by convention in mol/L. In general, Papp A→B refers to how fast a substance crosses the layer from the apical side. Lower therefore signals slow passage. The term Papp B→A denotes the apparent permeability from the basolateral to the apical side of a cell layer. Broadly, the logD is lipophilicity at a set pH, counting ionised and neutral species. Read a high logD as a more lipophilic compound.

The structures appear in SMILES notation. pIC50: −log10 of the molar value. Read-outs that look alike come from different tables or passages of the source. Where only a bound is given, the exact number is not on record here.

Sequence of cSRC wt (P12931 whole entry): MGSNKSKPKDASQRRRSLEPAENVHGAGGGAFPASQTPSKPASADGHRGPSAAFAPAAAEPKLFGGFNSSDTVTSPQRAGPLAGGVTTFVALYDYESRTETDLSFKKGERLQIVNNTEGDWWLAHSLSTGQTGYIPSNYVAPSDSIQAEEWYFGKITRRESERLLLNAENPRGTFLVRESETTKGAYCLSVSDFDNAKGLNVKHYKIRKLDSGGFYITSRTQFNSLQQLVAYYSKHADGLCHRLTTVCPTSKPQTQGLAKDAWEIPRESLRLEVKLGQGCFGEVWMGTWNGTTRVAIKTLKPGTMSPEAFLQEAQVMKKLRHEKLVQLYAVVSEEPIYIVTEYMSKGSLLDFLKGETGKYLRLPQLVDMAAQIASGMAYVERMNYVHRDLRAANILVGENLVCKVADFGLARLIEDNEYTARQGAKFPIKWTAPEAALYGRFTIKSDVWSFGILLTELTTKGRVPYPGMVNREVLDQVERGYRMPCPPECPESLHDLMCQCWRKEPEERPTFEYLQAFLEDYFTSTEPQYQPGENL
Sequence of BCR-ABL1 wt (P00519 27-1130 limits assumed): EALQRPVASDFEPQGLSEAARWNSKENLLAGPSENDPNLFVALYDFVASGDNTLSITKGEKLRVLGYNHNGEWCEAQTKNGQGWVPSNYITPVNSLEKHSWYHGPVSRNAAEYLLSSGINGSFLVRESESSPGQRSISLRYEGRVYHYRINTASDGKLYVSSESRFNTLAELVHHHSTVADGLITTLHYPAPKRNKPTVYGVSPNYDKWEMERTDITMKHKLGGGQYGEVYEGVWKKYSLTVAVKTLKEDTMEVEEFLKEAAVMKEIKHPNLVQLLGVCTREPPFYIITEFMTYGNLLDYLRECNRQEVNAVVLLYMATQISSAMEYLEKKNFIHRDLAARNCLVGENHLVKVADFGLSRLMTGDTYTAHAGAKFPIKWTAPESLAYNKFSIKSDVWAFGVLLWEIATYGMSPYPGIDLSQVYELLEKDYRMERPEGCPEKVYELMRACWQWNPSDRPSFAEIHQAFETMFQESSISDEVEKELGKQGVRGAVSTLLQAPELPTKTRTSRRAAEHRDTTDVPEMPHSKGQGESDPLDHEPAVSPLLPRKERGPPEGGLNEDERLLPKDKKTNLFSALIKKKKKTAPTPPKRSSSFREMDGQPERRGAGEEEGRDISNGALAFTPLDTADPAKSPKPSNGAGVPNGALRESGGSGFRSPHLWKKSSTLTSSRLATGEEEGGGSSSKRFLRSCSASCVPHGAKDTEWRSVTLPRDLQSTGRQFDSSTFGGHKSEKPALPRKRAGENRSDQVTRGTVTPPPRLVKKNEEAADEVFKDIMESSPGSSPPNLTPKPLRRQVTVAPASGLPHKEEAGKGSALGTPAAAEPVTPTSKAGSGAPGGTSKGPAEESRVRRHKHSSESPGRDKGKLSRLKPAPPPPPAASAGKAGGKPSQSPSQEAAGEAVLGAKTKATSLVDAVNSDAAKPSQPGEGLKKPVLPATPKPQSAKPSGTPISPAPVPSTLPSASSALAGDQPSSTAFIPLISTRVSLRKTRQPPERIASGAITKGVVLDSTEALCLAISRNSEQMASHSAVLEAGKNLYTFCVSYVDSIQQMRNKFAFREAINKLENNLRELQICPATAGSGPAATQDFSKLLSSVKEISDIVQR

For the compound `COc1cc2ncnc(Nc3cccc(Cl)c3F)c2cc1OC(=O)N1CCN(C)C[C@H]1C` [AZD3759], in data set [1], the “MDCKII-MDR1 Efflux Ratio” value was 0.4 and the P-gp efflux status entry is given as “Not a P-gp Substrate”.
Take `COc1cc2c(Nc3cccc(OC)c3Cl)c(C#N)cnc2cc1OCCON1CCN(C)CC1` [12a, 4-((2-Chloro-3-methoxyphenyl)amino)-6-methoxy-7-(2-((4-methylpiperazin-1-yl)oxy)ethoxy)quinoline-3-carbonitrile]: the “Recovery% (BL-AP)” value in [2] was determined as 87.19%; in data set [8], 91.60%. In addition, the “efflux ratio” value in data set [2] is 3.58; in [8], 3.22; in data set [11], 3.1; in data set [13], 3.6. Moreover, the “Caco-2 Papp (a-b)” value in data set [2] came to 6.5 ×10⁻⁶ cm/s. Also, the “Caco-2 Papp (b-a)” value in [2] is 23.1 ×10⁻⁶ cm/s. Moreover, in data set [3], the “Aq. Sol.” value is 123 µM. Besides, the pIC50 in data set [4] is 7.85; in [6], ≤ 7.82; in data set [7], 5.29; in data set [16] it was 7.70. Besides, the recovery in data set [5] is 92%; in data set [10], 95%; in data set [13] it was 76.2%; in data set [15] it was 92.5%. Further, the figures for the amount remaining at 6 h in [5] and in data set [15] were 96.7% and 97.8%, respectively. Moreover, the fraction unbound in [5] is 0.119; in data set [15] it was 0.0737. Moreover, the entries for the “%Unbound” value in data set [5] and in data set [15] were 11.93% and 7.37%, respectively. In data set [8], the “enhancement in permeability in MDCKII-MDR1 cells relative to bosutinib” value is on record as 31 fold. The “Remaining Percentages” value is recorded as 100.00% in data set [9] (0.5 min); 87.31% in data set [9] (15 min); 80.64% in data set [9] (30 min); 60.46% in data set [9] (60 min); 46.43% in [9] (90 min); 35.84% in data set [9] (120 min). Also, in data set [9], the hepatocyte CLint worked out at 17.2 µL/min/1e6 cells. Moreover, the “t1/2 (H)” value in data set [9] was determined as 1.34 h. For the same compound, the Papp A→B in [11] turned out to be 12.5 ×10⁻⁶ cm/s; in data set [12] it was 12.5 ×10⁻⁶ cm/s; in data set [13], 6.46 ×10⁻⁶ cm/s. Moreover, the figures for the Papp B→A in data set [11], in data set [12] and in data set [13] were 39 ×10⁻⁶ cm/s, 39 ×10⁻⁶ cm/s and 23.1 ×10⁻⁶ cm/s, respectively. The compound further returned a logD in data set [14] of 2.7.
On to `O=C(Nc1ccc(OC(F)(F)Cl)cc1)c1cnc(N2CC[C@@H](O)C2)c(-c2ccn[nH]2)c1` [Asciminib, asciminib], for which, in data set [17], the P-gp efflux status entry is recorded as “P-gp Substrate”.
As to `COc1cc2ncnc(Nc3ccc(F)c(Cl)c3)c2cc1OCCON1CCN(C)CC1` [6a], in [1], the “MDCKII-MDR1 Efflux Ratio” value is 8.7 and the P-gp efflux status result is “P-gp Substrate”.
Regarding `Cc1ccc(NC(=O)c2ccc(CN3CCN(C)CC3)cc2)cc1Nc1nccc(-c2cccnc2)n1` [Imatinib, imatinib], the P-gp efflux status entry in data set [17] is given as “P-gp Substrate”.
As to `COc1cc2c(Nc3cccc(OC)c3F)c(C#N)cnc2cc1OCCON1CCN(C)CC1` [13a, 4-((2-Fluoro-3-methoxyphenyl)amino)-6-methoxy-7-(2-((4-methylpiperazin-1-yl)oxy)ethoxy)quinoline-3-carbonitrile], the “Recovery% (BL-AP)” value is 92.56% in data set [2] and 105.61% in data set [8]. The “efflux ratio” value is 12.36 in data set [2], 7.26 in data set [8], 7.3 in [11] and 12.4 in data set [13]. Besides, the “Caco-2 Papp (a-b)” value in data set [2] was determined as 2.7 ×10⁻⁶ cm/s. Further, the “Caco-2 Papp (b-a)” value in [2] worked out at 33.6 ×10⁻⁶ cm/s. The “Aq. Sol.” value in data set [3] was 29 µM. Moreover, the results for the pIC50 in [4], in data set [6] and in data set [16] were 7.47, ≤ 7.82 and 7.72, respectively. For the same compound, the “Remaining Percentages” value in [9] (0.5 min) is on record as 100.00%; in [9] (15 min) it was 97.02%; in [9] (30 min), 95.67%; in data set [9] (60 min) it was 80.41%; in [9] (90 min), 67.22%; in [9] (120 min), 54.89%. Further, the hepatocyte CLint in data set [9] was determined as 10.3 µL/min/1e6 cells. Besides, the “t1/2 (H)” value in [9] is 2.243 h. In addition, the recovery in [10] turned out to be 93.1%; in data set [13] it was 84.8%; in data set [15], 87.8%. Moreover, the Papp A→B worked out at 7.53 ×10⁻⁶ cm/s in data set [11], 7.5 ×10⁻⁶ cm/s in data set [12] and 2.72 ×10⁻⁶ cm/s in data set [13]. Besides, the Papp B→A in data set [11] came to 54.4 ×10⁻⁶ cm/s; in [12], 54.4 ×10⁻⁶ cm/s; in [13], 33.6 ×10⁻⁶ cm/s. Also, in data set [14], the logD turned out to be 2.6. This compound also gave a fraction unbound in data set [15] of 0.13. Moreover, the share remaining at 6 h in data set [15] amounted to 98.3%. The “%Unbound” value in data set [15] turned out to be 12.97%.
`C[C@H]1O[C@@H](O[C@H]2[C@@H](O)C[C@H](O[C@H]3[C@@H](O)C[C@H](O[C@H]4CC[C@@]5(C)[C@H](CC[C@@H]6[C@@H]5C[C@@H](O)[C@]5(C)[C@@H](C7=CC(=O)OC7)CC[C@]65O)C4)O[C@@H]3C)O[C@@H]2C)C[C@H](O)[C@@H]1O` [Digoxin, reference compound]: in [2], the “Recovery% (BL-AP)” value came to 92.72%. Besides, in [8], the “Recovery% (BL-AP)” value is 93.20%. The recovery in data set [10] turned out to be 82.4%. For the same compound, in [11], the Papp A→B came out at 0.62 ×10⁻⁶ cm/s, the Papp B→A turned out to be 13.9 ×10⁻⁶ cm/s and the efflux ratio stood at 22.7. Besides, in data set [13], the Papp A→B was found to be 0.22 ×10⁻⁶ cm/s, the Papp B→A is 12.6 ×10⁻⁶ cm/s, the efflux ratio was 58.6 and the recovery came to 89.9%.
For `COc1cc(Cl)ccc1Nc1c(C#N)cnc2cc(OCCON3CCN(C)CC3)c(OC)cc12` [15a, 4-((4-Chloro-2-methoxyphenyl)amino)-6-methoxy-7-(2-((4-methylpiperazin-1-yl)oxy)ethoxy)quinoline-3-carbonitrile], the “Recovery% (BL-AP)” value in [2] was determined as 78.22%; in data set [8] it was 72.29%. For the same compound, the entries for the “efflux ratio” value in [2], in data set [11] and in data set [13] were 6.24, 4.2 and 6.3, respectively. For the same compound, the “Caco-2 Papp (a-b)” value in [2] was 0.7 ×10⁻⁶ cm/s. The “Caco-2 Papp (b-a)” value in [2] stood at 4.4 ×10⁻⁶ cm/s. The “Aq. Sol.” value in data set [3] stood at 0.8 µM. For the same compound, the pIC50 in data set [4] was 7.96; in [7], 5.36; in [16], 8.22. Further, the recovery in data set [5] was 95.9%; in data set [10] it was 84.5%; in data set [13] it was 72.2%; in data set [15] it was 95.8%. The fraction remaining at 6 h turned out to be 106% in data set [5] and 99.4% in [15]. In addition, the fraction unbound in data set [5] is 0.0971; in data set [15] it was 0.0773. The “%Unbound” value is 9.71% in [5] and 7.73% in [15]. Further, the “Remaining Percentages” value worked out at 100.00% in data set [9] (0.5 min); 78.44% in [9] (15 min); 63.53% in data set [9] (30 min); 43.29% in data set [9] (60 min); 27.95% in data set [9] (90 min); 20.14% in data set [9] (120 min). The “Remaining Percentages” value in data set [18] (0.5 min) amounted to 100.00%; in data set [18] (15 min), 55.53%; in [18] (30 min) it was 28.57%; in data set [18] (60 min), 13.26%; in data set [18] (90 min) it was 6.75%; in data set [18] (120 min), 2.89%. Further, the hepatocyte CLint in [9] amounted to 26.8 µL/min/1e6 cells. For the same compound, in [9], the “t1/2 (H)” value is 0.862 h. Moreover, the results for the Papp B→A in [11], in [12] and in data set [13] were 24.8 ×10⁻⁶ cm/s, 24.8 ×10⁻⁶ cm/s and 4.44 ×10⁻⁶ cm/s, respectively. Besides, the Papp A→B in data set [12] was determined as 5.9 ×10⁻⁶ cm/s; in data set [13] it was 0.71 ×10⁻⁶ cm/s. This compound came in with a logD in data set [14] of 3.1.
In the case of `COCCc1ccc(OCC(O)CNC(C)C)cc1` (stereo not shown) [Metoprolol, reference compound], the “Recovery% (BL-AP)” value in data set [2] stood at 95.54%; in data set [8], 99.15%. Besides, the recovery amounted to 112% in data set [10] and 95.3% in [13]. The Papp A→B in data set [11] was found to be 31.6 ×10⁻⁶ cm/s; in data set [13], 18.8 ×10⁻⁶ cm/s. The Papp B→A in [11] was determined as 28.1 ×10⁻⁶ cm/s; in data set [13], 19.4 ×10⁻⁶ cm/s. Also, the efflux ratio in [11] worked out at 0.89.
Take `Cc1nc(Nc2ncc(C(=O)Nc3c(C)cccc3Cl)s2)cc(N2CCN(CCO)CC2)n1` [Dasatinib, dasatinib]: the P-gp efflux status entry in data set [17] is listed as “P-gp Substrate”.

The values above are taken from paper PMC11472320, “Computationally Driven Discovery of a BCR-ABL1 Kinase Inhibitor with Activity in Multidrug-Resistant Chronic Myeloid Leukemia” (Journal of Medicinal Chemistry, 2024).
